Patent US11370785B2, “Multicyclic compounds as farnesoid X receptor modulators” (BRISTOL-MYERS SQUIBB COMPANY, priority 2017, dated 2022)
Like-named read-outs stand apart in the source and are kept apart here.

Biological target: T1, human FXR (Homo sapiens, UniProt Q96RI1)
T1 construct: expressed in transfected cells; host or cells: HEK293 cells stably carrying a 5xGal4-response-element firefly luciferase reporter, transiently transfected with the pcDNA3.1-Gal4-FXR plasmid
T1 sequence (Q96RI1 262-486 limits assumed): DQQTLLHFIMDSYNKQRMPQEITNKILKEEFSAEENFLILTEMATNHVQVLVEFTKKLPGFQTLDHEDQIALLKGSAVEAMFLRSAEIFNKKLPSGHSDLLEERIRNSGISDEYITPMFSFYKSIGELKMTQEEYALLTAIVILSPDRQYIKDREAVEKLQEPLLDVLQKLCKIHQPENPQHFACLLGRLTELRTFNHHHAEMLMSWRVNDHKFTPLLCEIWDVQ
Test: transient human FXR/Gal4-luciferase reporter assay
Type: cell-based
Details: Gal4-hFXR reporter in HEK293 cells
Description: The exemplified compounds of the present invention were tested in the transient human FXR/Gal4-luciferase reporter assay, and assay results were reported in Table 1 together with other analytical data.
A Gal4-hFXR fusion construct reporter system was used as the primary assay to characterize compound activity. A construct including 5 copies of the Gal4 promoter response element upstream of a firefly luciferase reporter cDNA was stably expressed in HEK293 cells. This reporter cell line was maintained in Dulbecco's Modified Eagle's medium (DMEM; Gibco) supplemented with 1% penicillin-streptomycin (P/S) solution, 500 μg/mL Zeocin and 10% charcoal/dextran-treated fetal bovine serum (cs-FBS) at 37° C. in a humidified 5% CO2 atmosphere. Another plasmid was constructed in which the human cytomegalovirus promoter in the pcDNA3.1 vector directs the expression of the cDNA encoding a fusion protein comprised of the DNA binding domain from the Gal4 transcription factor fused to the ligand binding domain from human FXR.
The day prior to transfection, the reporter cells in culture are detached from the plate with trypsin and plated into a T75 flask at a sufficient density to achieve approximately 90% confluence the next morning. The transfection reagents are prepared by separately diluting 25 μg of the pcDNA3.1-Gal4-FXR plasmid into 1.87 mL of Opti-MEM (Thermo-Fisher), and 40 μL of Lipofectamine 2000 (Thermo-Fisher) into 1.87 mL of Opti-MEM, and then adding the diluted DNA solution into the diluted Lipofectamine 2000 solution and incubating at room temperature for 15-20 minutes. The mixture is further diluted with 10 mL of a solution comprised of DMEM, 10% cs-FBS, and 1% P/S immediately prior to transferring to the cells. The maintenance culture media is aspirated from the cells and the final transfection mixture is added before the cells are incubated overnight at 37° C. in a humidified 5% CO2 atmosphere. This protocol can be scaled up, and the transiently transfected cells can be cryopreserved in an assay-ready format.
For compound testing, 100 nL of the compounds (serial dilutions in DMSO) are dispensed with an Echo acoustic dispenser (Labcyte) into the wells of a Corning/Costar clear bottom 384-well white plate. The transfected cells are harvested, counted, and diluted such that 10-25,000 cells in 25 μL are plated into each well of the 384-well compound assay plate. The compound-treated cells are incubated overnight at 37° C. in a humidified 5% CO2 atmosphere. The next morning 25 μL of Steady-Glo (Promega) are added to each well of the plate, the mixture is incubated for 15 min. with shaking, and luminescence is measured on an Envision (Perkin Elmer) plate reader. Background counts from cells treated with DMSO alone are subtracted from all raw counts, and the corrected values are converted to a percentage of the control response attained with 8 μM GW-4064.

[1] = relative to 8 μM GW-4064, read-out: FXR EC50

SMILES | EC50 [1] | EC50 (read-out: HLE GAL-FXR EC50)
Cn1cc(C(=O)O)c2ccc(N3CCC4(CC3)CC(Cc3c(-c5ccccc5C(F)(F)F)noc3C3CC3)C4)cc21 [Example 38] | 0.028 µM | –
COc1cc(C(=O)O)nc2ccc(N3CCC4(CC3)CC(Cc3c(-c5ccccc5C(F)(F)F)noc3C3CC3)C4)cc12 [Example 69] | 0.017 µM | –
Cc1cc2cc(N3CCC4(CC3)CC(=Cc3c(-c5c(Cl)cccc5Cl)noc3C3CC3)C4)ccc2nc1C(=O)O [Example 43] | 1.35 µM | –
O=C(O)c1cc(OCCO)c2cc(N3CCC4(CC3)CC(=Cc3c(-c5c(Cl)cncc5Cl)noc3C3CC3)C4)ccc2n1 [Example 95] | 0.2 µM | –
N#Cc1cnc(N2CCC3(CC2)CC(Cc2c(-c4c(Cl)cccc4Cl)noc2C2CC2)C3)s1 [Example 170] | 1.2 µM | –
N#Cc1ccc(N2CCC3(CC2)CC(=Cc2c(-c4c(Cl)cccc4Cl)noc2C2CC2)C3)cc1 [Example 48, 4-(2-((5-cyclopropyl-3-(2,6-dichlorophenyl)isoxazol-4-yl)methylene)-7-azaspiro[3.5]nonan-7-yl)benzonitrile] | 2.36 µM | –
O=C(NC1CC1)c1cc(OC2CCC2)c2cc(N3CCC4(CC3)CC(Cc3c(-c5ccccc5C(F)(F)F)noc3C3CC3)C4)ccc2n1 [Example 173] | 1.37 µM | –
Cc1cc(C(=O)O)nc2ccc(N3CCC4(CC3)CC(Cc3c(-c5ccccc5C(F)(F)F)noc3C3CC3)C4)cc12 [Example 78] | 0.016 µM | –
Cc1cccc(Cl)c1-c1noc(C2CC2)c1C=C1CC2(CCN(c3nc4c(F)cc(C(=O)O)cc4s3)CC2)C1 [Example 60] | 0.144 µM | –
O=C(O)c1cc(F)c2nc(N3CCC4(CC3)CC(=Cc3c(-c5c(Cl)cncc5Cl)noc3C3CC3)C4)sc2c1 [Example 88] | 0.069 µM | –
O=C(O)c1ccc(N2CCC3(CC2)CC(Nc2c(-c4c(Cl)cccc4Cl)noc2C2CC2)C3)nc1 [Example 13] | 1.22 µM | –
O=C(O)c1cc(OC2CCCC2)c2cc(N3CCC4(CC3)CC(=Cc3c(-c5ccccc5OC(F)(F)F)noc3C3CC3)C4)ccc2n1 [Example 121] | 0.016 µM | –
O=C(O)c1cc2ccc(N3CCC4(CC3)CC(=Cc3c(-c5ccccc5C(F)(F)F)noc3C3CC3)C4)cc2cn1 [Example 37] | 1.41 µM | –
O=C(NS(=O)(=O)C1CC1)c1cc(C(F)(F)F)c2cc(N3CCC4(CC3)CC(Cc3c(-c5ccccc5C(F)(F)F)noc3C3CC3)C4)ccc2n1 [Example 82, 6-(2-((5-Cyclopropyl-3-(2-(trifluoromethyl)phenyl)isoxazol-4-yl)methyl)-7-azaspiro[3.5]nonan-7-yl)-N-(cyclopropylsulfonyl)-4-(trifluoromethyl)quinoline-2-carboxamide] | – | 0.011 µM
O=C(O)c1cc(F)c2nc(N3CCC4(CC3)CC(=Cc3c(-c5c(Cl)cccc5Cl)cnn3C3CC3)C4)sc2c1 [Example 8, 2-(2-((1-Cyclopropyl-4-(2,6-dichlorophenyl)-1H-pyrazol-5-yl)methylene)-7-azaspiro[3.5]nonan-7-yl)-4-fluorobenzo[d]thiazole-6-carboxylic acid] | – | 0.422 µM
O=C(c1cc(OC2CCC2)c2cc(N3CCC4(CC3)CC(Cc3c(-c5ccccc5C(F)(F)F)noc3C3CC3)C4)ccc2n1)N1CC(F)(F)C1 [Example 186] | 1.93 µM | –
COc1cc(C(=O)O)nc2ccc(N3CCC4(CC3)CC(Cc3c(-c5ccccc5OC(F)(F)F)noc3C3CC3)C4)cc12 [Example 71] | 0.016 µM | –
O=C(O)c1cc(F)c2nc(N3CCC4(CC3)CC(=Cc3c(-c5c(Cl)cncc5Cl)noc3C(F)(F)F)C4)sc2c1 [Example 150] | 0.11 µM | –
COc1ccc(C(=O)O)c2ccc(N3CCC4(CC3)CC(Cc3c(-c5ccccc5C(F)(F)F)noc3C3CC3)C4)nc12 [Example 118] | 0.191 µM | –
O=C(O)COc1ccc(N2CCC3(CC2)CC(=Cc2c(-c4c(Cl)cccc4Cl)noc2C2CC2)C3)cc1 [Example 61] | 0.461 µM | –
COc1cc2nc(N3CCC4(CC3)CC(=Cc3c(-c5c(Cl)cncc5Cl)noc3C3CC3)C4)sc2cc1C(=O)O [Example 102] | 0.157 µM | –
O=C(O)c1cc(OCCO)c2cc(N3CCC4(CC3)CC(Cc3c(-c5ccccc5C(F)(F)F)noc3C3CC3)C4)ccc2n1 [Example 94] | 0.472 µM | –

SMILES | EC50 [1] | EC50 (read-out: HLE GAL-FXR EC50)
CC(C)Oc1cc(C(=O)O)nc2ccc(N3CCC4(CC3)CC(Cc3c(-c5ccccc5OC(F)(F)F)noc3C3CC3)C4)cc12 [Example 90] | 0.012 µM | –
CCOc1cc(C(=O)O)ncc1N1CCC2(CC1)CC(=Cc1c(-c3ccccc3C(F)(F)F)noc1C1CC1)C2 [Example 141] | 0.442 µM | –
O=C(O)c1cc2ccc(N3CCC4(CC3)CC(Cc3c(-c5c(Cl)cccc5Cl)noc3C3CC3)C4)cc2nn1 [Example 65] | 0.204 µM | –
COCCOc1cc(C(=O)O)nc2ccc(N3CCC4(CC3)CC(=Cc3c(-c5c(Cl)cncc5Cl)noc3C(F)(F)F)C4)cc12 [Example 162] | 0.037 µM | –
COc1cc([N+](=O)[O-])ccc1S(=O)(=O)N1CCC2(CC1)CC(Cc1c(-c3c(Cl)cccc3Cl)noc1C1CC1)C2 [Example 175] | 1.5 µM | –
O=C(O)c1ccc(CN2CCC3(CC2)CC(=Cc2c(-c4c(Cl)cccc4Cl)noc2C2CC2)C3)cc1 [Example 52] | 4.32 µM | –
O=C(O)c1cc(F)c2nc(N3CCC4(CC3)CC(=Cc3c(-c5ccncc5C(F)(F)F)noc3C3CC3)C4)sc2c1 [Example 127] | 0.198 µM | –
O=C(O)c1cc(CO)c2cc(N3CCC4(CC3)CC(Cc3c(-c5ccccc5C(F)(F)F)noc3C3CC3)C4)ccc2n1 [Example 154] | 0.326 µM | –
COc1ccc(C(=O)O)c2ccc(N3CCC4(CC3)CC(=Cc3c(-c5c(Cl)cncc5Cl)noc3C3CC3)C4)nc12 [Example 119] | 0.336 µM | –
CCN(C)C(=O)c1cc(OC2CCC2)c2cc(N3CCC4(CC3)CC(Cc3c(-c5ccccc5C(F)(F)F)noc3C3CC3)C4)ccc2n1 [Example 184] | 0.037 µM | –
CCOc1cc(C(N)=O)ncc1N1CCC2(CC1)CC(Cc1c(-c3ccccc3C(F)(F)F)noc1C1CC1)C2 [Example 144] | 0.327 µM | –
O=C(O)c1ccc2cc(N3CCC4(CC3)CC(=Cc3c(-c5ccccc5C(F)(F)F)noc3C3CC3)C4)ccc2n1 [Example 29] | 0.172 µM | –
O=C(c1cc(OC2CCC2)c2cc(N3CCC4(CC3)CC(Cc3c(-c5ccccc5C(F)(F)F)noc3C3CC3)C4)ccc2n1)N1CCC1 [Example 187] | 0.428 µM | –
COCc1onc(-c2c(Cl)cncc2Cl)c1C=C1CC2(CCN(c3nc4c(F)cc(C(=O)O)cc4s3)CC2)C1 [Example 155] | 0.12 µM | –
O=C(O)c1cc(F)c2nc(N3CCC4(CC3)CC(Nc3c(-c5c(Cl)cccc5Cl)noc3C3CC3)C4)sc2c1 [Example 5, 2-(2-((5-Cyclopropyl-3-(2,6-dichlorophenyl)isoxazol-4-yl)amino)-7-azaspiro[3.5]nonan-7-yl)-4-fluorobenzo[d]thiazole-6-carboxylic acid] | – | 0.06 µM
O=C(c1cc(OC2CCC2)c2cc(N3CCC4(CC3)CC(Cc3c(-c5ccccc5C(F)(F)F)noc3C3CC3)C4)ccc2n1)N1CCC(O)CC1 [Example 190] | 0.011 µM | –
CCOc1cc(C(=O)O)nc2ccc(N3CCC4(CC3)CC(Cc3c(-c5ccccc5C(F)(F)F)noc3C3CC3)C4)cc12 [Example 99] | 0.017 µM | –
C=Cc1cncc(Cl)c1-c1noc(C2CC2)c1C=C1CC2(CCN(c3ccc4nc(C(=O)O)cc(C(F)(F)F)c4c3)CC2)C1 [Example 160] | 0.037 µM | –
O=C(O)c1ccc2cc(N3CCC4(CC3)CC(Cc3c(-c5c(Cl)cccc5Cl)noc3C3CC3)C4)ccc2n1 [Example 40] | 0.051 µM | –
Cn1cc(-c2nn[nH]n2)c2ccc(N3CCC4(CC3)CC(=Cc3c(-c5ccccc5C(F)(F)F)noc3C3CC3)C4)cc21 [Example 62] | 0.054 µM | –
O=C(O)c1cc(F)c2nc(N3CCC4(CC3)CC(=Cc3c(-c5ccccc5C(F)(F)F)noc3C(F)(F)F)C4)sc2c1 [Example 169] | 0.65 µM | –
O=C(O)c1ccc2cc(N3CCC4(CC3)CC(=Cc3c(-c5c(Cl)cccc5Cl)noc3C3CC3)C4)ccc2c1 [Example 47] | 0.053 µM | –
